Measured values published in PubChem BioAssay (NCI).
Where “and” joins values, the source holds several entries; their conditions need not be identical. Identical values can stand only once.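 1) Cells in 96-well plates. 2) Compound, 48 h, 5 concentrations. 3) Linear interpolation between surrounding doses. 4) Unreached endpoint = highest concentration. GI50 marks 50% less growth. Definition used: TGI = concentration required for complete inhibition of growth.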

Legend:
Assay in all cases: growth of human tumour cells (NCI), 48 h
[1] = tested on: ACHN renal
[2] = tested on: HT29 colon
[3] = tested on: CAKI-1 renal
[4] = tested on: M14 melanoma
[5] = tested on: A549 NSCLC
[6] = tested on: HCT-116 colon
[7] = tested on: SF-539 CNS
[8] = tested on: SN12C renal
[9] = tested on: HOP-62 NSCLC
[10] = tested on: MDA-MB-231 breast

| SMILES | TGI [1] | TGI [2] [µM] | TGI [3] | TGI [4] [µM] | TGI [5] | TGI [6] [µM] | TGI [7] | TGI [8] | TGI [9] | TGI [10] [µM] | GI50 [1] [µM] | GI50 [2] [µM] | GI50 [3] [µM] | GI50 [9] [µM] | GI50 [5] [µM] | GI50 [10] [µM] | GI50 [6] [µM] | GI50 [7] [µM] | GI50 [8] [µM] | GI50 [4] [µM] |
| --- | --- | --- | --- | --- | --- | --- | --- | --- | --- | --- | --- | --- | --- | --- | --- | --- | --- | --- | --- | --- |
| NCCCCNOCCCN | > 100 µM | > 100 | > 100 µM | > 100 | > 100 µM | > 100 | > 100 µM | > 100 µM |  |  |  |  |  |  |  |  |  |  |  |  |
| C/C=C(/CCC1NCCc2c1[nH]c1ccccc21)[Si](C)(C)C (configuration not stated) | > 100 µM and 21.5 µM |  | > 100 µM and 18.3 µM |  | > 100 µM and 29.7 µM |  | > 100 µM and 13.1 µM | > 100 µM and 16.9 µM | > 100 µM and 26.7 µM |  |  |  |  |  |  |  |  |  |  |  |
| C=CCN1C(=O)NC(=O)/C(=C/c2c3ccccc3cc3ccccc23)C1=O |  | 37.9 | 40.3 µM | 37.2 | 58.2 µM | 30.8 | 38.1 µM |  | 33.2 µM |  |  |  |  |  |  |  |  |  |  |  |
| O=c1[nH]c2ccccc2c2oc3ccccc3c12 | > 100 µM | > 100 | > 100 µM | > 100 | > 100 µM |  | > 100 µM | > 100 µM | > 100 µM | > 100 |  |  |  |  |  |  |  |  |  |  |
| O=S1(=O)C(=C(c2ccccc2)c2ccccc2)S(=O)(=O)c2ccccc21 |  | > 100 | > 100 µM |  | > 100 µM | > 100 | 73.3 µM | > 100 µM | 46.8 µM |  |  |  |  |  |  |  |  |  |  |  |
| O=c1c(-c2ccccc2)c(SCCCN2CCCCC2)n(-c2ccccc2)c(=S)n1-c1ccccc1 | 34.4 µM |  | 38.7 µM |  |  |  | 30.4 µM |  | 32.7 µM | 27.9 |  |  |  |  |  |  |  |  |  |  |
| COC(=O)C(C)NP(=O)(OCc1cccc(Cn2cnc3c(N)ncnc32)c1)Oc1ccccc1 (configuration not stated) | > 100 µM | > 100 | > 100 µM |  | > 100 µM | > 100 | > 100 µM | > 100 µM | > 100 µM | > 100 | > 100 | > 100 | > 100 | > 100 | > 100 | 51.7 | 47 | > 100 | > 100 |  |
| O=c1c2ccccc2nc2n1CCc1c-2[nH]c2ccccc12 |  |  | 47.9 µM | 32 | 37.4 µM | 31.3 |  |  |  |  |  |  |  |  | 14.5 |  |  |  |  |  |
| CCOC(=O)c1c(Cl)c2c(n1Cc1ccccc1)-c1oncc1CCC2 | > 100 µM | 8.52 | > 100 µM | > 100 |  | > 100 |  |  | > 100 µM | > 100 | 5.89 | 2.95 | 3.51 | 4.35 |  | 3.51 | 4.02 |  |  | 3.78 |
| COC(=O)C1=C(O)C(C(=O)OC)[C@@]2(O)[C@@H](C(=O)OC)[C@H](C)C[C@@H]1[C@@H]2C(=O)OC (some centres not stated) | > 100 µM | 71.3 |  | 39.9 |  | > 100 | 34.1 µM | > 100 µM | > 100 µM | 40.3 |  |  |  |  |  |  |  |  |  |  |
| CC(C)(CCCCC(C)(C)NC1=NCCO1)NC1=NCCO1 | > 10 µM | > 10 | > 10 µM | > 10 | > 10 µM | > 10 | > 10 µM | > 10 µM | > 10 µM | > 10 |  |  |  |  |  |  |  |  |  |  |
